From EP0636624A1, “Thiazole derivatives as lipoxygenase inhibitors” (ZENECA LIMITED, priority 1993, dated 1995)

What was measured:
5-LO [1] = target: T1, 5-LO (Homo sapiens, UniProt P09917); experiment: Test a): in vitro heparinised human blood challenged with calcium ionophore A23187, LTB4 radioimmunoassay; type: cell-based; settings: heparinised human blood, A23187 challenge; read-out: IC₅₀ against LTB₄ in test a)
T1 construct: incubating a test compound with heparinised human blood, prior to challenge with the calcium ionophore A23187; endogenous in cells; host or cells: blood cells of heparinised human whole blood
T1 sequence (P09917 1-674): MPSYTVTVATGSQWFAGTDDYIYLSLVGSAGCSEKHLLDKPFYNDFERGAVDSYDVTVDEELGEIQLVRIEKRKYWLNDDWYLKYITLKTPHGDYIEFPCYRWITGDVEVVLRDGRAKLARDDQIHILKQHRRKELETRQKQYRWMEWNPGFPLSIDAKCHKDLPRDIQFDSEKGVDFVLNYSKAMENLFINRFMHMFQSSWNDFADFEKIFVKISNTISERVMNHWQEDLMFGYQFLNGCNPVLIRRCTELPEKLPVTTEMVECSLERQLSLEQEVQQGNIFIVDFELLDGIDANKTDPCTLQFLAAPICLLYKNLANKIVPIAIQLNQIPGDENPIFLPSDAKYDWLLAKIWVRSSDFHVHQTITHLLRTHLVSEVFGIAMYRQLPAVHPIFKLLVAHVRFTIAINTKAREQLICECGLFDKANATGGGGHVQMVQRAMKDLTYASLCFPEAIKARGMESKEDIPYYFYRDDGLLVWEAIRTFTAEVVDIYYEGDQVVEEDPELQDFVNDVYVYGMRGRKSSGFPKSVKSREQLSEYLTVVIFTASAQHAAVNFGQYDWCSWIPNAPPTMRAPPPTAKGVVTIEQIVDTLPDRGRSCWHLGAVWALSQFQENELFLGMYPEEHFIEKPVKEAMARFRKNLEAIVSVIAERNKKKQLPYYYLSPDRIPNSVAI
Text: As stated previously, the compounds of the formula I are inhibitors of the enzyme 5-LO. […] J. Pharmacol. 1985, 84, 34P) which involve the use of a protein-LTB₄ conjugate produced using the procedure of Young et alia (Prostaglandins, 1983, 26(4), 605-613). The effects of a test compound on the enzyme cyclooxygenase (which is involved in the alternative metabolic pathway for arachidonic acid and gives rise to prostaglandins, thromboxanes and related metabolites) may be measured at the same time using the specific radioimmunoassay for thromboxane B₂(TxB₂) described by Carey and Forder (see above). This test provides an indication of the effects of a test compound against 5-LO and also cyclooxygenase in the presence of blood cells and proteins. It permits the selectivity of the inhibitory effect on 5-LO or cyclooxygenase to be assessed. • b) An ex vivo assay system, which is a variation of test a) above, involving administration to a group of rats of a test compound (usually orally as the suspension produced when a solution of the test compound in dimethylsulphoxide is added to carboxymethylcellulose), blood collection, heparinisation, challenge with A23187 and radioimmunoassay of LTB₄ and TxB₂. […]

5-LO [2] = experiment: Test c): in vivo zymosan-induced LTB4 liberation in rat subcutaneous air pouch; set-up: species or system male rats; settings: oral, approximate value, 180 min
hepatic enzymes = experiment: Auto-induction on repeated dosing (fall in C max / AUC); type: in vivo; settings: repeated dosing to a warm-blooded animal
Text: The result is a decrease on repeat dosing of the quantity of the compound present in the animal's blood stream as shown, for example, by a decrease in the maximum concentration achieved (C max) or, for example, a decrease in the exposure of the animal to the compound as measured by the area under the curve (AUC) of a plot of the concentration of the compound in the blood stream versus time after dosing.

Row | SMILES | IC50 (5-LO [1]) [nM] | IC₅₀ against LTB₄ in test c) (5-LO [2]) | auto-induction (hepatic enzymes)
1 | CO[C@]1(c2cnc(Sc3ccc4c(c3)CCC(=O)N4C)s2)CCO[C@@H](C)C1 [Example 3, (2S,4R)-4-methoxy-2-methyl-4-[2-(1-methyl-2-oxo-1,2,3,4-tetrahydroquinolin-6-ylthio)thiazol-5-yl]tetrahydropyran] | 60 | approximately 0.2 mg/kg | –
2 | COC1(c2ccc(Sc3ccc4c(c3)CCC(=O)N4C)s2)CCOCC1 [4-methoxy-4-[5-(1-methyl-2-oxo-1,2,3,4-tetrahydroquinolin-6-ylthio)-thien-2-yl]tetrahydropyran] | – | – | possesses the undesirable property of auto-induction
